Results published in patent publication US20040048237A1 (priority 2002, published 2004).
Peptide text beside a SMILES is read from it. * marks the point of attachment. Cbz = O=C(OCc1ccccc1)*

How the values were obtained:
[1] = test system: N2A cells
[2] = test system: WtPN2A cells
[3] = test system: proteasome; assay type: cell-based

Compound: epoxomicin
- rate of N2A cell death [1]: died at the same rates

Compound: CC(C)C[C@@H](C=O)NC(=O)[C@H](CC(C)C)NC(=O)[C@H](CC(C)C)NC(=O)OCc1ccccc1 [MG132] (Cbz-Leu-Leu-Leu-aldehyde)
- cell death during proteasome inhibition relative to N2A cells [2]: died much more rapidly
- proteasome activity after MG132 treatment [3]: undetectable
- proteasome activity restored after removal of MG132 [3]: > 70 % of control levels
- relative proteasome inhibiting activity [3]: stronger proteasome inhibiting activity than 10 μM Lactacystin
- cells died [1]: More than 50%
